How the values were obtained:
BCL11A = assay: RNA-Seq of BCL11A mRNA expression in erythroid-differentiated primary CD34+ cells; assay type: cell-based, human
Protocol: Human Mobilized Peripheral Blood Primary CD34+ cells from healthy donors were expanded from thaw by seeding 100,000 viable cells/mL in a culture flask containing CD34+ Phase 1 Media comprised of IMDM, 100 ng/ml hSCF, 5 ng/ml IL-3, 3 IU/mL EPO, 250 μg/mL transferrin, 2.5% normal human serum, 1% pen/strep, 10 ng/ml heparin, 10 μg/mL insulin. The cells were supplemented by adding an additional 1X culture volume of CD34+ Phase 1 Media on Day 3 after thaw. At Day 7 post-thaw, cells were seeded at 0.111×10^6 cells/ml in 1.5 mLs of Phase 1 media in 12-well plates and compound was applied. On Day 10 post-thaw, cells were differentiated towards the erythroid lineage by complete medium exchange into CD34+ Phase 2 Media comprised of IMDM, 100 ng/ml hSCF, 3 IU/mL EPO, 250 μg/mL transferrin, 2.5% normal human serum, 1% pen/strep, 10 ng/mL heparin, 10 μg/mL insulin and compound treatment was reapplied. On Day 12 post-thaw the plates were centrifuged, and 1 mL of Phase 2 media exchanged with fresh Phase 2 media and compound. The cells were harvested on Day 14 post-thaw for downstream analyses.
(§1) RNA was extracted from Day 14 post-thaw primary CD34+ cells that were differentiated and treated for 7 days with DMSO, 11 nM, 33 nM, 100 nM, or 300 nM of Compound 1 using Ambion mirVana RNA extraction kits. […] Sequenced raw reads of fastq files from all samples were mapped to hg38 genome assemblies using ArrayStudio aligner. Raw read counts and FPKM were calculated for all genes and DESeq2 was applied to calculate differentially expressed genes using general linear model. […]
Changes in BCL11A expression and HBG1 and HBG2 expression in multiple healthy CD34+ donor cells were measured by RNA sequencing (RNA-Seq). […]
RNA was extracted from Day 14 post-thaw primary CD34+ cells that were differentiated and treated for 7 days with DMSO, 100 nM of Compound 1, or 100 nM of Compound 2 using Ambion mirVana RNA extraction kits. […] Sequenced raw reads of fastq files from all samples were mapped to hg38 genome assemblies using ArrayStudio aligner. […]

HBG1 = assay: RNA-Seq of HBG1 expression in erythroid-differentiated primary CD34+ cells; assay type: cell-based, human
Protocol: (§2) Changes in BCL11A expression and HBG1 and HBG2 expression in multiple healthy CD34+ donor cells were measured by RNA sequencing (RNA-Seq). Human Mobilized Peripheral Blood Primary CD34+ cells from 2 healthy donors and 1 sickle cell trait donor were expanded from thaw by seeding 100,000 viable cells/mL in a culture flask containing CD34+ Phase 1 Media comprised of IMDM, 100 ng/ml hSCF, 5 ng/ml IL-3, 3 IU/mL EPO, 250 μg/mL transferrin, 2.5% normal human serum, 1% pen/strep, 10 ng/ml heparin, 10 μg/mL insulin. The cells were supplemented by adding an additional 1X culture volume of CD34+ Phase 1 Media on Day 3 after thaw. At Day 7 post-thaw, cells were seeded at 0.111×10^6 cells/ml in 1.5 mLs of Phase 1 media in 12-well plates and compound was applied. On Day 10 post-thaw, cells were differentiated towards the erythroid lineage by complete medium exchange into CD34+ Phase 2 Media comprised of IMDM, 100 ng/ml hSCF, 3 IU/mL EPO, 250 μg/mL transferrin, 2.5% normal human serum, 1% pen/strep, 10 ng/ml heparin, 10 μg/mL insulin and compound treatment was reapplied. […]
as §1, with “DMSO,” for “DMSO, 11 nM, 33 nM,”, “100” for “100 nM, or 300”, “Compound 1, or 100 nM of Compound 2” for “Compound 1”
as §1

HBG2 = assay: RNA-Seq of HBG2 expression in erythroid-differentiated primary CD34+ cells; assay type: cell-based, human
Protocol: as §2
as §1, with “DMSO,” for “DMSO, 11 nM, 33 nM,”, “100” for “100 nM, or 300”, “Compound 1, or 100 nM of Compound 2” for “Compound 1”
as §1

TFRC = assay: RNA-Seq of housekeeping gene TFRC expression in primary CD34+ cells; assay type: cell-based, human; conditions: Example 2; 100 nM, 7 days
Protocol: as §2, with “applied.” for “applied. On Day 10 post-thaw, cells were differentiated towards the erythroid lineage by complete medium exchange into CD34+ Phase 2 Media comprised of IMDM, 100 ng/ml hSCF, 3 IU/mL EPO, 250 μg/mL transferrin, 2.5% normal human serum, 1% pen/strep, 10 ng/ml heparin, 10 μg/mL insulin and compound treatment was reapplied.”
as §1, with “DMSO,” for “DMSO, 11 nM, 33 nM,”, “100” for “100 nM, or 300”, “Compound 1, or 100 nM of Compound 2” for “Compound 1”

HbF [1] = assay: Percentage HbF by cation-exchange HPLC in erythroid-differentiated primary CD34+ cells; assay type: cell-based, human; conditions: Example 2; 100 nM, 7 days
Protocol: as §2, with “applied.” for “applied. On Day 10 post-thaw, cells were differentiated towards the erythroid lineage by complete medium exchange into CD34+ Phase 2 Media comprised of IMDM, 100 ng/ml hSCF, 3 IU/mL EPO, 250 μg/mL transferrin, 2.5% normal human serum, 1% pen/strep, 10 ng/ml heparin, 10 μg/mL insulin and compound treatment was reapplied.”
Hemoglobin protein tetramers were analyzed using HPLC analysis following a protocol derived from Gravett et al. Science 2018. […] Hemolysates were cleared by centrifugation and analyzed for identity and levels of hemoglobin variants (HbF and HbA) by cation-exchange HPLC with a weak cation-exchange column (Poly CAT A: 35 mm×4.6 mm, Poly LC, Inc., Columbia, MD). […] Species were monitored with UV absorbance at 410 nm. […] The abundance of HbF, HbS, and HbA was quantified by calculating the area under the curve for each species in the samples. % HbF was calculated as HbF/(HbF+HbS+HbA)*100. […]

H3K27me3 = assay: Target engagement: H3K27me3 flow cytometry in Ter119+ bone marrow cells of Townes SCD mice; assay type: in vivo, mouse; conditions: after 28 days of treatment, FIG. 8A
Source text: The Townes SCD mouse model was used to study the in vivo pharmacologic activity of Compound 1 in a model with the relevant human globin genes (HBG1 and HBBE6V) integrated into the mouse beta globin locus. […] […] People living with sickle cell present with impaired erythropoiesis leading to elevated reticulocytes, decreased red blood cell count, and total hemoglobin, and additionally display markers of inflammation such as elevated neutrophils and white blood cells. Similarly, the Townes mouse model recapitulates these hematological aspects of SCD.

HbF [2] = assay: % HbF of total hemoglobin by HPLC from whole blood in Townes SCD mouse model; assay type: in vivo; conditions: Townes SCD mice; whole blood after 21 days of treatment; FIG. 8C
Source text: The Townes SCD mouse model was used to study the in vivo pharmacologic activity of Compound 1 in a model with the relevant human globin genes (HBG1 and HBBE6V) integrated into the mouse beta globin locus. Hydroxyurea was used as a benchmark for this 21-day study. […] People living with sickle cell present with impaired erythropoiesis leading to elevated reticulocytes, decreased red blood cell count, and total hemoglobin, and additionally display markers of inflammation such as elevated neutrophils and white blood cells. Similarly, the Townes mouse model recapitulates these hematological aspects of SCD.

[3] = Example 2, 100 nM, 7 days, all donors studied (D069, D144, D326), FIG. 2
[4] = Example 5, 4-point concentration response curves, FIG. 5A
[5] = Example 5, 4-point concentration response curves, FIG. 5B
[6] = Example 5, 4-point concentration response curves, FIG. 5C

| SMILES | BCL11A expression (BCL11A; [3]) | BCL11A expression (BCL11A; [4]) | HBG1 expression (HBG1; [3]) | HBG1 expression (HBG1; [5]) | HBG2 expression (HBG2; [3]) | HBG2 expression (HBG2; [6]) | expression of the housekeeping gene TFRC (TFRC) | increase in percentage HbF by HPLC (HbF [1]) | levels of H3K27me3 in Ter119+ bone marrow cells (H3K27me3) | % HbF of total hemoglobin by HPLC (HbF [2]) |
| --- | --- | --- | --- | --- | --- | --- | --- | --- | --- | --- |
| Cn1nccc1-c1cc2c(n3cnnc13)NCc1c(F)ccc3c1[C@H](CO3)CO2 [Compound 2] | decreased | reduction | increase | induction | increase | induction | did not result in substantial changes in expression | approximately 2 fold |  |  |
| COc1cc(C)[nH]c(=O)c1CN1CCc2c(Cl)cc([C@@H](OC)C3COC3)c(Cl)c2C1=O [Compound 3] |  | reduction |  | induction |  | induction |  |  |  |  |
| NC(=O)NO [hydroxyurea] |  |  |  |  |  |  |  |  | not | no change |

— patent publication US20240238296A1, “METHODS OF REGULATING BCL11A EXPRESSION AND TREATMENT OF BCL11A-MEDIATED DISORDERS” (Fulcrum Therapeutics, Inc., priority 2021, published 2024)
